Assay results: the supplement of paper PMC11616607

The molecules below were run on OVCAR5 (assay: drug sensitivity score (DSS) from 5-point dose-response viability curve (DSS (area-under-curve based score)); higher = more sensitive (stronger growth inhibition or killing); extreme values may be limits of the assay). Details: exposure time: 72 h; concentration range: 5 concentrations over 10,000-fold range.
How it was run: (§1)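 Ovarian cancer and normal ovarian cell lines were tested in 384-well plates. Drugs were acoustically dispensed (Echo 550) in DMSO or water at five concentrations spanning a 10,000-fold range, then 1,500 cells per well were added and incubated 3 days at 37°C, 5% CO2. Viability was read by CellTiter-Glo luminescence on a PHERAstar FS. Drug sensitivity score was derived per cell line and drug with Breeze software; higher means more sensitive, zero means no response.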

**Q.** For `COc1cc(CCc2cc(NC(=O)c3ccc(N4CC(C)NC(C)C4)cc3)n[nH]2)cc(OC)c1` (configuration not stated) [AZD4547], which drug sensitivity score is on record?
**A.** 0

**Q.** Which drug sensitivity score does the source give for `CN(C)C(=O)c1ccc(S(=O)(=O)c2ccc(NC(=O)[C@@](C)(O)C(F)(F)F)c(Cl)c2)cc1` [AZD7545] here?
**A.** 0

**Q.** `NC(=O)Nc1cc(-c2cccc(F)c2)sc1C(=O)N[C@H]1CCCNC1` [AZD7762] was tested. Which drug sensitivity score did it give?
**A.** 6.6

**Q.** `COc1ccc(-c2ccc3c(N4CCOC[C@@H]4C)nc(N4CCOC[C@@H]4C)nc3n2)cc1CO` [AZD8055] was tested. Which drug sensitivity score did it give?
**A.** 18.4

**Q.** Which drug sensitivity score does the source give for `N#Cc1ccc2[nH]c(O)c(-c3ccc(CN4CCOCC4)cn3)c2c1` [AZD-1080] here?
**A.** 0

**Q.** With `Cc1ncc(-c2ccnc(Nc3ccc(S(C)(=O)=O)cc3)n2)n1C(C)C` [AZD-5438] as the molecule, how does the drug sensitivity score read?
**A.** 9.2

**Q.** How did the drug sensitivity score turn out when `Cc1cc([C@@H](C)Nc2ccccc2C(=O)O)c2nc(N3CCOCC3)cc(=O)n2c1` [AZD-6482] was run?
**A.** 0.1

**Q.** With `C[C@@H](Nc1cc(F)cc(F)c1)c1cc(C(=O)N(C)C)cc2c(=O)cc(N3CCOCC3)oc12` [AZD-8186] as the molecule, how does the drug sensitivity score read?
**A.** 1.9

**Q.** For `CCN1CCN(Cc2ccc(Nc3ncc(F)c(-c4cc(F)c5nc(C)n(C(C)C)c5c4)n3)nc2)CC1` [Abemaciclib], which drug sensitivity score is on record?
**A.** 7.4

**Q.** `CN(C)Cc1c(C(=O)NCCOc2ccc(C(=O)NO)cc2)oc2ccccc12` [Abexinostat] was tested. Which drug sensitivity score did it give?
**A.** 21.7

**Q.** How did the drug sensitivity score turn out when `C[C@]12CC[C@H](O)CC1=CC[C@@H]1[C@@H]2CC[C@]2(C)C(c3cccnc3)=CC[C@@H]12` [Abiraterone] was run?
**A.** 0

**Q.** Which drug sensitivity score does the source give for `CC#CC(=O)N1CCC[C@H]1c1nc(-c2ccc(C(=O)Nc3ccccn3)cc2)c2c(N)nccn12` [Acalabrutinib] here?
**A.** 0.2

**Q.** How did the drug sensitivity score turn out when `COc1cc(C)c(/C=C/C(C)=C/C=C/C(C)=C/C(=O)O)c(C)c1C` [Acitretin] was run?
**A.** 0

**Q.** Which drug sensitivity score does the source give for `CN(C)C/C=C/C(=O)Nc1cc2c(Nc3ccc(F)c(Cl)c3)ncnc2cc1O[C@H]1CCOC1` [Afatinib] here?
**A.** 3.4

**Q.** How did the drug sensitivity score turn out when `Cn1ncc(Cl)c1-c1cc(C(=O)N[C@H](CN)Cc2cccc(F)c2)sc1Cl` [Afuresertib] was run?
**A.** 1.2

**Q.** With `COc1cccc2c1C(=O)c1c(O)c3c(c(O)c1C2=O)C[C@@](O)(/C(CO)=N/NC(=O)CCCCCN1C(=O)C=CC1=O)C[C@@H]3O[C@H]1C[C@H](N)[C@H](O)[C@H](C)O1` [Aldoxorubicin] as the molecule, how does the drug sensitivity score read?
**A.** 6.5

**Q.** With `CCc1cc2c(cc1N1CCC(N3CCOCC3)CC1)C(C)(C)c1[nH]c3cc(C#N)ccc3c1C2=O` [Alectinib] as the molecule, how does the drug sensitivity score read?
**A.** 1.5

**Q.** `COc1cc(Nc2ncc3c(n2)-c2ccc(Cl)cc2C(c2c(F)cccc2OC)=NC3)ccc1C(=O)O` [Alisertib] was tested. Which drug sensitivity score did it give?
**A.** 6.9

**Q.** Which drug sensitivity score does the source give for `Oc1ncnc2[nH]ncc12` [Allopurinol] here?
**A.** 0

**Q.** Which drug sensitivity score does the source give for `Cc1nc(NC(=O)N2CCC[C@H]2C(N)=O)sc1-c1ccnc(C(C)(C)C(F)(F)F)c1` [Alpelisib] here?
**A.** 4.2

**Q.** Which drug sensitivity score does the source give for `O=C(Nc1cc(Oc2cc(F)c(NC(=O)C3(C(=O)Nc4ccc(F)cc4)CC3)cc2F)ccn1)C1CC1` [Altiratinib] here?
**A.** 6.6

**Q.** For `CN1CC[C@H](c2c(O)cc(O)c3c(=O)cc(-c4ccccc4Cl)oc23)[C@H](O)C1` [Alvocidib], which drug sensitivity score is on record?
**A.** 16.7

**Q.** How did the drug sensitivity score turn out when `CCN(CC)CCNC(=O)c1c(C)[nH]c(/C=C2\C(=O)Nc3ccc(-c4csc(-c5ccccc5)n4)cc32)c1C` [Amcasertib] was run?
**A.** 1.3

**Q.** How did the drug sensitivity score turn out when `CCC1(c2ccc(N)cc2)CCC(=O)NC1=O` (configuration not stated) [Aminoglutethimide] was run?
**A.** 0

**Q.** How did the drug sensitivity score turn out when `COc1cc(NS(C)(=O)=O)ccc1Nc1c2ccccc2nc2ccccc12` [Amsacrine] was run?
**A.** 6

**Q.** How did the drug sensitivity score turn out when `S=C(NCc1ccc2c(c1)OCO2)N1CCN(c2ncnc3c2oc2ccccc23)CC1` [Amuvatinib] was run?
**A.** 1.8

**Q.** Which drug sensitivity score does the source give for `O=C1CN2Cc3c(ccc(Cl)c3Cl)N=C2N1` [Anagrelide] here?
**A.** 0

**Q.** `CC(C)(C#N)c1cc(Cn2cncn2)cc(C(C)(C)C#N)c1` [Anastrozole] was tested. Which drug sensitivity score did it give?
**A.** 0

What follows are molecules tested on OVCAR8 in the same assay as above. Details: exposure time: 72 h; concentration range: 5 concentrations over 10,000-fold range.
How it was run: as §1

**Q.** How did the drug sensitivity score turn out when `COc1cc(CCc2cc(NC(=O)c3ccc(N4CC(C)NC(C)C4)cc3)n[nH]2)cc(OC)c1` (configuration not stated) [AZD4547] was run?
**A.** 0

**Q.** Which drug sensitivity score does the source give for `CN(C)C(=O)c1ccc(S(=O)(=O)c2ccc(NC(=O)[C@@](C)(O)C(F)(F)F)c(Cl)c2)cc1` [AZD7545] here?
**A.** 2.2

**Q.** How did the drug sensitivity score turn out when `NC(=O)Nc1cc(-c2cccc(F)c2)sc1C(=O)N[C@H]1CCCNC1` [AZD7762] was run?
**A.** 5.2

**Q.** `COc1ccc(-c2ccc3c(N4CCOC[C@@H]4C)nc(N4CCOC[C@@H]4C)nc3n2)cc1CO` [AZD8055] was tested. Which drug sensitivity score did it give?
**A.** 17.2

**Q.** Which drug sensitivity score does the source give for `N#Cc1ccc2[nH]c(O)c(-c3ccc(CN4CCOCC4)cn3)c2c1` [AZD-1080] here?
**A.** 0

**Q.** Which drug sensitivity score does the source give for `Cc1ncc(-c2ccnc(Nc3ccc(S(C)(=O)=O)cc3)n2)n1C(C)C` [AZD-5438] here?
**A.** 8.4

**Q.** With `Cc1cc([C@@H](C)Nc2ccccc2C(=O)O)c2nc(N3CCOCC3)cc(=O)n2c1` [AZD-6482] as the molecule, how does the drug sensitivity score read?
**A.** 0.7

**Q.** With `C[C@@H](Nc1cc(F)cc(F)c1)c1cc(C(=O)N(C)C)cc2c(=O)cc(N3CCOCC3)oc12` [AZD-8186] as the molecule, how does the drug sensitivity score read?
**A.** 0.6

**Q.** How did the drug sensitivity score turn out when `CCN1CCN(Cc2ccc(Nc3ncc(F)c(-c4cc(F)c5nc(C)n(C(C)C)c5c4)n3)nc2)CC1` [Abemaciclib] was run?
**A.** 0.7

**Q.** How did the drug sensitivity score turn out when `CN(C)Cc1c(C(=O)NCCOc2ccc(C(=O)NO)cc2)oc2ccccc12` [Abexinostat] was run?
**A.** 19.9

**Q.** `C[C@]12CC[C@H](O)CC1=CC[C@@H]1[C@@H]2CC[C@]2(C)C(c3cccnc3)=CC[C@@H]12` [Abiraterone] was tested. Which drug sensitivity score did it give?
**A.** 0

**Q.** Which drug sensitivity score does the source give for `CC#CC(=O)N1CCC[C@H]1c1nc(-c2ccc(C(=O)Nc3ccccn3)cc2)c2c(N)nccn12` [Acalabrutinib] here?
**A.** 0

**Q.** Which drug sensitivity score does the source give for `COc1cc(C)c(/C=C/C(C)=C/C=C/C(C)=C/C(=O)O)c(C)c1C` [Acitretin] here?
**A.** 0

**Q.** Which drug sensitivity score does the source give for `CN(C)C/C=C/C(=O)Nc1cc2c(Nc3ccc(F)c(Cl)c3)ncnc2cc1O[C@H]1CCOC1` [Afatinib] here?
**A.** 0.3
